pIC50: −log10 of the molar value. Structures can show the parent of a compound that is named as a salt.
What follows are compounds tested against human, KCNT1 (Homo sapiens (Human), UniProt Q5JUK3) (assay: FLIPR Tl/K Flux Assay). Settings: HEK293 cells stably expressing human KCNT1; Tl+ flux stimulated with EC80 of agonist Loxapine.
Type: cell-based
Summary of the method: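 Inhibition values come from a Hill-equation fit of % inhibition versus log concentration, using normalized fluorescence (Fmax/Fmin) over a 160 s read. The read followed stimulation with Tl+ plus EC80 agonist loxapine after 30 min compound pre-incubation at 25 °C. Cells were KCNT1-expressing HEK293, dye-loaded 1 h in pH 7.4 HEPES/HBSS with 5 mM probenecid.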

Sequence of human, KCNT1 (Q5JUK3 whole entry): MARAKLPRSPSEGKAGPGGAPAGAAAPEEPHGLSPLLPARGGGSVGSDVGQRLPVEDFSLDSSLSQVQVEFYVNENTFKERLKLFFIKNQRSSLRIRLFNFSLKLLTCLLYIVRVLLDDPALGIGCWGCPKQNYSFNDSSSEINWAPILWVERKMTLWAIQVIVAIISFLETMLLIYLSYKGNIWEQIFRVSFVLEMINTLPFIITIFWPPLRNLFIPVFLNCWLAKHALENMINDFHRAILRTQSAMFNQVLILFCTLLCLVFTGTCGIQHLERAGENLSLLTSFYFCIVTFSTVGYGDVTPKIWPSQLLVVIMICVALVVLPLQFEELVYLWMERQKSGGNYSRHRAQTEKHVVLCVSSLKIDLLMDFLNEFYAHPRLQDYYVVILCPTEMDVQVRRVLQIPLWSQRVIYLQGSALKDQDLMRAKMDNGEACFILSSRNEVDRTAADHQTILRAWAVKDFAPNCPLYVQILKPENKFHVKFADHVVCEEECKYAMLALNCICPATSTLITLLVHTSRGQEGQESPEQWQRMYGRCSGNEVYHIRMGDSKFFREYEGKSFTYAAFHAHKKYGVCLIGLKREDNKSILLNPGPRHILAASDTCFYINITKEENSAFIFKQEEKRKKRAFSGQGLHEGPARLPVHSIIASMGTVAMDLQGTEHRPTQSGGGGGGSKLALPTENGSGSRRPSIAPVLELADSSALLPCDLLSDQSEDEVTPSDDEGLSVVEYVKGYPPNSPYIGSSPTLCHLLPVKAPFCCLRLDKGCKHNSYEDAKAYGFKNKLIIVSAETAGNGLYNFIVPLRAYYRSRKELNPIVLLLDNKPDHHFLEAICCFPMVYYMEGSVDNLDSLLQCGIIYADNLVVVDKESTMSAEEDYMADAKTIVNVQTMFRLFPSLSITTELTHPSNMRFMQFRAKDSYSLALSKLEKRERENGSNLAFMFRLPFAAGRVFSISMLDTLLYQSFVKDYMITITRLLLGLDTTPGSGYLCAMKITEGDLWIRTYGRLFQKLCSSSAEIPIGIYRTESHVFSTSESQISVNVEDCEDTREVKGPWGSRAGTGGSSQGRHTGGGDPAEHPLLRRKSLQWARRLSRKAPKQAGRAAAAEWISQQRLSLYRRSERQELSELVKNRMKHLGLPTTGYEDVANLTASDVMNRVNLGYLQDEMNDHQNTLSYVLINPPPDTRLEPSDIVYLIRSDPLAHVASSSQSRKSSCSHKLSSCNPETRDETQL

Structure (SMILES) | pIC50
CCOc1cc(-c2cc3n(n2)CCC[C@@H]3NC(=O)c2cc(F)cc(C#N)c2)ccn1 [Compound I-252a, (S)-3-Cyano-N-(2-(2-ethoxypyridin-4-yl)-4,5,6,7-tetrahydropyrazolo[1,5-a]pyridin-4-yl)-5-fluorobenzamide] | > 6.60
CCOc1cc(-c2cc3n(n2)CC[C@@H]3NC(=O)c2cc(C(F)(F)F)nn2C)ccn1 [Compound I-254a, (S)-N-(2-(2-Ethoxypyridin-4-yl)-5,6-dihydro-4H-pyrrolo[1,2-b]pyrazol-4-yl)-1-methyl-3-(trifluoromethyl)-1H-pyrazole-5-carboxamide] | > 6.60
COc1cc(-c2cc3n(n2)CCCC[C@@H]3NC(=O)c2ccc(F)c(C#N)c2)ccn1 [Compound I-256a, (S)-3-Cyano-4-fluoro-N-(2-(2-methoxypyridin-4-yl)-5,6,7,8-tetrahydro-4H-pyrazolo[1,5-a]azepin-4-yl)benzamide] | > 6.60
COc1cc(-c2cc3n(n2)CC[C@@H]3NC(=O)c2ccc(F)c(C#N)c2)ccn1 [Compound I-257a, (S)-3-Cyano-4-fluoro-N-(2-(2-methoxypyridin-4-yl)-5,6-dihydro-4H-pyrrolo[1,2-b]pyrazol-4-yl)benzamide] | > 6.60
COc1cc(-n2cc3c(n2)CC[C@@H]3NC(=O)c2ccc(F)c(C#N)c2)ccn1 [Compound I-259a, (S)-3-Cyano-4-fluoro-N-(2-(2-methoxypyridin-4-yl)-2,4,5,6-tetrahydrocyclopenta[c]pyrazol-4-yl)benzamide] | > 6.60
CC(F)(F)c1cc(-c2cc3n(n2)CC[C@@H]3NC(=O)c2cccc(C#N)c2)ccn1 [Compound I-261a, (S)-3-Cyano-N-(2-(2-(1,1-difluoroethyl)pyridin-4-yl)-5,6-dihydro-4H-pyrrolo[1,2-b]pyrazol-4-yl)benzamide] | > 6.60
N#Cc1cc(F)cc(C(=O)N[C@H]2CCCn3nc(-c4ccnc(C5CC5)c4)cc32)c1 [Compound I-262a] | > 6.60
N#Cc1cc(F)cc(C(=O)N[C@H]2CCCCn3nc(-c4ccnc(C5CC5)c4)cc32)c1 [Compound I-265a, (S)-3-Cyano-N-(2-(2-cyclopropylpyridin-4-yl)-5,6,7,8-tetrahydro-4H-pyrazolo[1,5-a]azepin-4-yl)-5-fluorobenzamide] | > 6.60
N#Cc1cc(C(=O)N[C@H]2CCn3nc(-c4ccnc(C(F)(F)F)c4)cc32)ccc1F [Compound I-266a, (S)-3-Cyano-4-fluoro-N-(2-(2-(trifluoromethyl)pyridin-4-yl)-5,6-dihydro-4H-pyrrolo[1,2-b]pyrazol-4-yl)benzamide] | > 6.60
N#Cc1ccc(F)c(C(=O)N[C@H]2CCCn3nc(-c4ccnc(C(F)(F)F)c4)cc32)c1 [Compound I-278a, (S)-5-Cyano-2-fluoro-N-(2-(2-(trifluoromethyl)pyridin-4-yl)-4,5,6,7-tetrahydropyrazolo[1,5-a]pyridin-4-yl)benzamide] | > 6.60
Cc1cc(C#N)cc(C(=O)N[C@H]2CCCn3nc(-c4ccnc(C5CC5)c4)cc32)c1 [Compound I-281a, (S)-3-Cyano-N-(2-(2-cyclopropylpyridin-4-yl)-4,5,6,7-tetrahydropyrazolo[1,5-a]pyridin-4-yl)-5-methylbenzamide TFA salt] | > 6.60
CCOc1cc(C(=O)N[C@H]2CCCn3nc(-c4ccnc(C(F)(F)F)c4)cc32)ccn1 [Compound I-282a, (S)-2-Ethoxy-N-(2-(2-(trifluoromethyl)pyridin-4-yl)-4,5,6,7-tetrahydropyrazolo[1,5-a]pyridin-4-yl)isonicotinamide] | > 6.60
COc1cc(-c2cc3n(n2)CC[C@@H]3NC(=O)c2cccc(C(F)(F)F)c2)ccn1 [Compound I-286a, (S)-N-(2-(2-Methoxypyridin-4-yl)-5,6-dihydro-4H-pyrrolo[1,2-b]pyrazol-4-yl)-3-(trifluoromethyl)benzamide] | > 6.60
COc1cc(-c2cc3n(n2)CCC[C@@H]3NC(=O)c2cc(F)cc(C(F)(F)F)c2)ccn1 [Compound I-287a, (S)-3-Fluoro-N-(2-(2-methoxypyridin-4-yl)-4,5,6,7-tetrahydropyrazolo[1,5-a]pyridin-4-yl)-5-(trifluoromethyl)benzamide] | > 6.60
N#Cc1cc(C(=O)N[C@H]2CCn3nc(-c4ccnc(C(F)(F)F)c4)cc32)cc(C(F)(F)F)c1 [Compound I-288a, (S)-3-Cyano-5-(trifluoromethyl)-N-(2-(2-(trifluoromethyl)pyridin-4-yl)-5,6-dihydro-4H-pyrrolo[1,2-b]pyrazol-4-yl)benzamide] | > 6.60
O=C(N[C@H]1CCn2nc(-c3ccnc(C(F)(F)F)c3)cc21)c1cccc(C(F)(F)F)c1 [Compound I-289a, (S)-3-(Trifluoromethyl)-N-(2-(2-(trifluoromethyl)pyridin-4-yl)-5,6-dihydro-4H-pyrrolo[1,2-b]pyrazol-4-yl)benzamide] | > 6.60
O=C(N[C@H]1CCCn2nc(-c3ccnc(C(F)(F)F)c3)cc21)c1cccc(C(F)(F)F)c1 [Compound I-290a, (S)-3-(Trifluoromethyl)-N-(2-(2-(trifluoromethyl)pyridin-4-yl)-4,5,6,7-tetrahydropyrazolo[1,5-a]pyridin-4-yl)benzamide] | > 6.60

Results, then the compound that gave them:

pIC50 | Structure (SMILES)
> 6.60 | O=C(N[C@H]1CCCc2oc(-c3ccnc(C(F)(F)F)c3)nc21)c1cccc(C(F)(F)F)c1 [Compound I-251a, (S)-3-(Trifluoromethyl)-N-(2-(2-(trifluoromethyl)pyridin-4-yl)-4,5,6,7-tetrahydrobenzo[d]oxazol-4-yl)benzamide]
> 6.60 | COc1cc(-c2cc3n(n2)CC[C@@H]3NC(=O)c2cc(F)cc(Cl)c2)ccn1 [Compound I-253a, (S)-3-Chloro-5-fluoro-N-(2-(2-methoxypyridin-4-yl)-5,6-dihydro-4H-pyrrolo[1,2-b]pyrazol-4-yl)benzamide]
> 6.60 | COc1cc(-c2cc3n(n2)CC[C@@H]3NC(=O)c2cnn(C(F)(F)F)c2)ccn1 [Compound I-255a, (S)-N-(2-(2-Methoxypyridin-4-yl)-5,6-dihydro-4H-pyrrolo[1,2-b]pyrazol-4-yl)-1-(trifluoromethyl)-1H-pyrazole-4-carboxamide]
> 6.60 | COc1cc(C#N)cc(C(=O)N[C@H]2CCn3nc(-c4ccnc(C(F)(F)F)c4)cc32)c1 [Compound I-258a, (S)-3-Cyano-5-methoxy-N-(2-(2-(trifluoromethyl)pyridin-4-yl)-5,6-dihydro-4H-pyrrolo[1,2-b]pyrazol-4-yl)benzamide]
6.30 to 6.60 | COc1cc(-c2nc3n(n2)CCC[C@@H]3NC(=O)c2cc(C(F)(F)F)nn2C)ccn1 [Compound I-260a, (S)—N-(2-(2-Methoxypyridin-4-yl)-5,6,7,8-tetrahydro-[1,2,4]triazolo[1,5-a]pyridin-8-yl)-1-methyl-3-(trifluoromethyl)-1H-pyrazole-5-carboxamide]
> 6.60 | N#Cc1cccc(C(=O)N[C@H]2CCCCn3cc(-c4ccnc(C(F)(F)F)c4)cc32)c1 [Compound I-263a, (S)-3-Cyano-N-(2-(2-(trifluoromethyl)pyridin-4-yl)-6,7,8,9-tetrahydro-5H-pyrrolo[1,2-a]azepin-9-yl)benzamide]
> 6.60 | CCOc1cc(C(=O)N[C@H]2CCn3nc(-c4ccnc(C(F)(F)F)c4)cc32)ccn1 [Compound I-264a]
> 6.60 | N#Cc1cc(C(=O)N[C@H]2CCc3nn(-c4ccnc(C(F)(F)F)c4)cc32)ccc1F [Compound I-267a, (S)-3-Cyano-4-fluoro-N-(2-(2-(trifluoromethyl)pyridin-4-yl)-2,4,5,6-tetrahydrocyclopenta[c]pyrazol-4-yl)benzamide]
> 6.60 | COc1cc(C(=O)N[C@H]2CCCCn3nc(-c4ccnc(C(C)(F)F)c4)cc32)ccn1 [Compound I-273a]
> 6.60 | CC(F)(F)c1cc(-n2cc3c(n2)CC[C@@H]3NC(=O)c2cccc(C#N)c2)ccn1 [Compound I-274a, (S)-3-Cyano-N-(2-(2-(1,1-difluoroethyl)pyridin-4-yl)-2,4,5,6-tetrahydrocyclopenta[c]pyrazol-4-yl)benzamide]
> 6.60 | COc1cc(-c2nc3c(o2)CCC[C@@H]3NC(=O)c2cc(F)cc(C#N)c2)ccn1 [Compound I-275a]
> 6.60 | N#Cc1cc(C(=O)N[C@H]2CCCCn3nc(-c4ccnc(C(F)(F)F)c4)cc32)ccc1F [Compound I-277a, (S)-3-Cyano-4-fluoro-N-(2-(2-(trifluoromethyl)pyridin-4-yl)-5,6,7,8-tetrahydro-4H-pyrazolo[1,5-a]azepin-4-yl)benzamide]
> 6.60 | O=C(N[C@H]1CCn2nc(-c3ccnc(C4CC4)c3)cc21)c1cc2cccnn2c1 [Compound I-279a, (S)-N-(2-(2-Cyclopropylpyridin-4-yl)-5,6-dihydro-4H-pyrrolo[1,2-b]pyrazol-4-yl)pyrrolo[1,2-b]pyridazine-6-carboxamide]
> 6.60 | Cc1cnc(C(F)(F)F)cc1-c1cc2n(n1)CCCC[C@@H]2NC(=O)c1cccc(C#N)c1 [Compound I-280a, (S)-3-Cyano-N-(2-(5-methyl-2-(trifluoromethyl)pyridin-4-yl)-5,6,7,8-tetrahydro-4H-pyrazolo[1,5-a]azepin-4-yl)benzamide]
> 6.60 | CCOc1cc(C(=O)N[C@H]2CCCCn3nc(-c4ccnc(C(F)(F)F)c4)cc32)ccn1 [Compound I-283a, (S)-2-Ethoxy-N-(2-(2-(trifluoromethyl)pyridin-4-yl)-5,6,7,8-tetrahydro-4H-pyrazolo[1,5-a]azepin-4-yl)isonicotinamide]
> 6.60 | COc1cc(-c2cc3n(n2)CCC[C@@H]3NC(=O)c2cc(C#N)cc(C(F)(F)F)c2)ccn1 [Compound I-284a, (S)-3-Cyano-N-(2-(2-methoxypyridin-4-yl)-4,5,6,7-tetrahydropyrazolo[1,5-a]pyridin-4-yl)-5-(trifluoromethyl)benzamide]
> 6.60 | COc1cc(-c2cc3n(n2)CC[C@@H]3NC(=O)c2cc(C#N)cc(C(F)(F)F)c2)ccn1 [Compound I-285a, (S)-3-Cyano-N-(2-(2-methoxypyridin-4-yl)-5,6-dihydro-4H-pyrrolo[1,2-b]pyrazol-4-yl)-5-(trifluoromethyl)benzamide]

Reference: US20250313548A1 (Actio Biosciences, Inc., priority 2023, published 2025)
